Experimental data reported in patent US11584734B2, “Tricyclic compounds as histone methyltransferase inhibitors” (GLOBAL BLOOD THERAPEUTICS, INC., priority 2017, dated 2023).

Each compound was assayed against T1, G9a (Homo sapiens, UniProt Q96KQ7) (assay: G9a AlphaLISA enzymatic activity assay). Details: negative log of IC50 in molar, 0.15 nM G9a, 15 uM S-adenosyl-methionine, 100 nM biotinylated histone 3 peptide (1-21).
T1 sequence (Q96KQ7 1-1210): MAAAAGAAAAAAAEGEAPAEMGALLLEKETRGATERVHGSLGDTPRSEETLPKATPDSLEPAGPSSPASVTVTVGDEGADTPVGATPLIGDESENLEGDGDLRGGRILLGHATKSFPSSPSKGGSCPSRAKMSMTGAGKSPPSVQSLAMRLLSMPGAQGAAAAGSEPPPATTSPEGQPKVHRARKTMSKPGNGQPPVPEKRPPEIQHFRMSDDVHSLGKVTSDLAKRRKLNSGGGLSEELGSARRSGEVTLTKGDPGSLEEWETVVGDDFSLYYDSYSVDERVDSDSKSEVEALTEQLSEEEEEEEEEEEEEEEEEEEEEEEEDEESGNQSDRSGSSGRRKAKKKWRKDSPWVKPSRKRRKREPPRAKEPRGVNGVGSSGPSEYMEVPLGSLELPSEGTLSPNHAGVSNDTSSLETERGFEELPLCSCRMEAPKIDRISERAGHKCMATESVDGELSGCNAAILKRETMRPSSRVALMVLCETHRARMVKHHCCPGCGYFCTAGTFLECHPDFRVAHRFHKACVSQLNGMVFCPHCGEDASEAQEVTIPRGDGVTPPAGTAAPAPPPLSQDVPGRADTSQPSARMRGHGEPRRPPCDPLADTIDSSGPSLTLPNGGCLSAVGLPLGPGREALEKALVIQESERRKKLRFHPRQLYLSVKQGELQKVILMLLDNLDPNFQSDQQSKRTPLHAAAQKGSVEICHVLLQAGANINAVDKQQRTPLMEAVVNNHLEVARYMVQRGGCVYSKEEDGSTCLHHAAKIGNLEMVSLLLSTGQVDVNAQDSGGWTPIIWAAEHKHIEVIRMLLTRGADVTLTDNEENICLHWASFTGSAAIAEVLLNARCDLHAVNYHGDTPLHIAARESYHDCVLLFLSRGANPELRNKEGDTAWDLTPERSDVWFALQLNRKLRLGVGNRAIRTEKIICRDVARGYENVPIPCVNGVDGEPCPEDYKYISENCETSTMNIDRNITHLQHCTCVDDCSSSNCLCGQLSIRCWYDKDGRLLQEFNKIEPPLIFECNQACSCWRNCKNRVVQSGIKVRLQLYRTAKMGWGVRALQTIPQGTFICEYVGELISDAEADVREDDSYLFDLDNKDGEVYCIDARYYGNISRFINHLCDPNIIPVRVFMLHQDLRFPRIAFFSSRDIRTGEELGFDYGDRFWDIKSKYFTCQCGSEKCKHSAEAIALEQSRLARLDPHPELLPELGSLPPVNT
Type: biochemical
Excerpt: The G9a AlphaLISA assay was used to detect the methyl modifications of a biotinylated histone H3 peptide by the compounds. These modifications are done by the histone methyl transferase activity of the G9a enzyme. The assay consists of reading a chemiluminescent signal at 615 nm; this signal is generated by a laser excitation at 680 nm that transfers a reactive singlet oxygen between the donor beads and acceptor beads. Donor beads are streptavidin conjugated and bind to the biotin on the peptide. Acceptor beads are conjugated with an antibody that recognizes the specific G9a methyl mark on the peptide. If there is a methyl mark on the peptide, the acceptor beads will bind to the peptide. Upon binding, the acceptor beads will be in close proximity (<200 nm) of the donor beads and when the donor beads are excited, the transfer of the oxygen can occur and a strong signal will be generated. If there is no methyl mark, the interaction between beads will not occur and signal will be at background levels.
For the assay, the following buffer was used to set up reactions: 50 mM Tris-HCl pH9, 50 mM NaCl, 0.01% Tween-20 and 1 mM DTT (added fresh prior to starting the reactions). […] The reaction is incubated at rt for 1 hour and subsequently quenched by the addition of the acceptor beads (anti-H3k9me2 AlphaLISA acceptor beads, PerkinElmer #AL117) at a final concentration of 20 ug/mL. The acceptor beads are incubated for 1 hour. After 1 hour, the donor beads are added at a final concentration of 20 ug/mL (Alpha Streptavidin donor beads, PerkinElmer #6760002). Donor beads are incubated for 0.5 hours. Both donor and acceptor beads are resuspended in AlphaLISA 5X Epigenetics Buffer 1 Kit (PerkinElmer #AL008) prior to addition to the reaction. All manipulations and incubations with the donor and acceptor beads are done in subdued light. Signal is detected in an EnVision plate reader in Alpha mode. See ACS Med Chem Lett. 2014; 5(2):205-9.
Percent inhibition was calculated for each compound dilution and the concentration that produced 50% inhibition was calculated. This value is presented as the pIC50, which is the negative log of the IC50 value in molar.

Compound | IC50
CCNc1c2c(nc3cc(OCCCN4CCCC4)c(OC(F)F)cc13)CCC2 [Example 30, 7-(difluoromethoxy)-N-ethyl-6-[3-(pyrrolidin-1-yl)propoxy]-1H,2H,3H-cyclopenta[b]quinolin-9-amine] | 35.5 nM
CCCNc1c2c(nc3cc(OCCCN4CCCC4)c(OC(F)F)cc13)CCC2 [Example 31, 7-(difluoromethoxy)-N-propyl-6-[3-(pyrrolidin-1-yl)propoxy]-1H,2H,3H-cyclopenta[b]quinolin-9-amine] | 110 nM
COCCNc1c2c(nc3cc(OCCCN4CCCC4)c(OC(F)F)cc13)CCC2 [Example 32, 7-(difluoromethoxy)-N-(2-methoxyethyl)-6-[3-(pyrrolidin-1-yl)propoxy]-1H,2H,3H-cyclopenta[b]quinolin-9-amine] | 107 nM
COCCCNc1c2c(nc3cc(OCCCN4CCCC4)c(OC(F)F)cc13)CCC2 [Example 33, 7-(difluoromethoxy)-N-(3-methoxypropyl)-6-[3-(pyrrolidin-1-yl)propoxy]-1H,2H,3H-cyclopenta[b]quinolin-9-amine] | 145 nM
CNc1c2c(nc3cc(OCCCN4CCCC4)c(OC(F)F)cc13)CCC2 [Example 34, 7-(difluoromethoxy)-N-methyl-6-[3-(pyrrolidin-1-yl)propoxy]-1H,2H,3H-cyclopenta[b]quinolin-9-amine] | 28.8 nM
CC(C)Nc1c2c(nc3cc(OCCCN4CCCC4)c(OC(F)F)cc13)CCC2 [Example 35, 7-(difluoromethoxy)-N-(propan-2-yl)-6-[3-(pyrrolidin-1-yl)propoxy]-1H,2H,3H-cyclopenta[b]quinolin-9-amine] | 63.1 nM
CNc1c2c(nc3cc(OCCCN4CCCC4)c(OC)cc13)C1CCCC2C1 (stereo not shown) [Example 36, 7-methoxy-N-methyl-6-[3-(pyrrolidin-1-yl)propoxy]-3-azatetracyclo[10.3.1.0^{2,11}.0^{4,9}]hexadeca-2,4,6,8,10-pentaen-10-amine] | 19.5 nM
COCCNc1c2c(nc3cc(OCCCN4CCCC4)c(OC)cc13)CCCCC2 [Example 37, 2-methoxy-N-(2-methoxyethyl)-3-[3-(pyrrolidin-1-yl)propoxy]-6H,7H,8H,9H,10H-cyclohepta[b]quinolin-11-amine] | 107 nM
COC[C@H](C)Nc1c2c(nc3cc(OCCCN4CCCC4)c(OC)cc13)CCCCC2 [Example 38, 2-methoxy-N-[(2S)-1-methoxypropan-2-yl]-3-[3-(pyrrolidin-1-yl)propoxy]-6H,7H,8H,9H,10H-cyclohepta[b]quinolin-11-amine] | 214 nM
COc1cc2c(NCCC(C)(C)O)c3c(nc2cc1OCCCN1CCCC1)CCCCC3 [Example 39, 4-({2-methoxy-3-[3-(pyrrolidin-1-yl)propoxy]-6H,7H,8H,9H,10H-cyclohepta[b]quinolin-11-yl}amino)-2-methylbutan-2-ol] | 57.5 nM
COc1cc2c(NCC3CC3)c3c(nc2cc1OCC(O)CN1CCCC1)CCC3 (stereo not shown) [Example 40, 1-({9-[(cyclopropylmethyl)amino]-7-methoxy-1H,2H,3H-cyclopenta[b]quinolin-6-yl}oxy)-3-(pyrrolidin-1-yl)propan-2-ol] | 40.7 nM
CCOCCNc1c2c(nc3cc(COCCN4CCCC4)c(OC)cc13)CCC2 [Example 41, N-(2-ethoxyethyl)-7-methoxy-6-{[2-(pyrrolidin-1-yl)ethoxy]methyl}-1H,2H,3H-cyclopenta[b]quinolin-9-amine] | 33.9 nM
FC(F)Oc1cc2c(NCC3CC3)c3c(nc2cc1OCCCN1CCCC1)CCC3 [Example 42, N-(cyclopropylmethyl)-7-(difluoromethoxy)-6-[3-(pyrrolidin-1-yl)propoxy]-1H,2H,3H-cyclopenta[b]quinolin-9-amine] | 97.7 nM
COCCNc1c2c(nc3cc(OCCCN4CCCC4)c(OC)cc13)C1CCCC2C1 (stereo not shown) [Example 43, 7-methoxy-N-(2-methoxyethyl)-6-[3-(pyrrolidin-1-yl)propoxy]-3-azatetracyclo[10.3.1.0^{2,11}.0^{4,9}]hexadeca-2,4,6,8,10-pentaen-10-amine] | 39.8 nM
COc1cc2c(NCC3CC3)c3c(nc2cc1OC[C@H](C)CN1CCCC1)CCC3 [Example 44, N-(cyclopropylmethyl)-7-methoxy-6-[(2R)-2-[(pyrrolidin-1-yl)methyl]propoxy]-1H,2H,3H-cyclopenta[b]quinolin-9-amine] | 166 nM
COc1cc2c(NC(C)C)c3c(nc2cc1OCCOCCN(C)C)CCC3 [Example 45, 6-{2-[2-(dimethylamino)ethoxy]ethoxy}-7-methoxy-N-(propan-2-yl)-1H,2H,3H-cyclopenta[b]quinolin-9-amine] | 17.4 nM
CNc1c2c(nc3cc(OCCCNC(C)=O)c(OC)cc13)CCC2 [Example 46, N-(3-{[7-methoxy-9-(methylamino)-1H,2H,3H-cyclopenta[b]quinolin-6-yl]oxy}propyl)acetamide] | 3090 nM
CNc1c2c(nc3cc(OCCCN4C5CCC4CC5)c(OC)cc13)CCC2 [Example 47, 6-(3-{7-azabicyclo[2.2.1]heptan-7-yl}propoxy)-7-methoxy-N-methyl-1H,2H,3H-cyclopenta[b]quinolin-9-amine] | 1350 nM
CNc1c2c(nc3cc(OCCCN4CCCC4)c(OC(F)(F)F)cc13)CCC2 [Example 48, N-methyl-6-[3-(pyrrolidin-1-yl)propoxy]-7-(trifluoromethoxy)-1H,2H,3H-cyclopenta[b]quinolin-9-amine] | 603 nM
CCNc1c2c(nc3cc(OCCCN4CCCC4)c(OC(F)(F)F)cc13)CCC2 [Example 49, N-ethyl-6-[3-(pyrrolidin-1-yl)propoxy]-7-(trifluoromethoxy)-1H,2H,3H-cyclopenta[b]quinolin-9-amine] | 646 nM
COCCNc1c2c(nc3cc(OCCCN4CCCC4)c(OC(F)(F)F)cc13)CCC2 [Example 50, N-(2-methoxyethyl)-6-[3-(pyrrolidin-1-yl)propoxy]-7-(trifluoromethoxy)-1H,2H,3H-cyclopenta[b]quinolin-9-amine] | 776 nM
CNc1c2c(nc3cc(OCCCN(C)CCF)c(OC)cc13)CCC2 [Example 55, 6-{3-[(2-fluoroethyl)(methyl)amino]propoxy}-7-methoxy-N-methyl-1H,2H,3H-cyclopenta[b]quinolin-9-amine] | 813 nM
CCNc1c2c(nc3cc(OCCCN(C)CCF)c(OC)cc13)CCC2 [Example 56, N-ethyl-6-{3-[(2-fluoroethyl)(methyl)amino]propoxy}-7-methoxy-1H,2H,3H-cyclopenta[b]quinolin-9-amine] | 1050 nM
CCOCCNc1c2c(nc3cc(OCCCN(C)CCF)c(OC)cc13)CCC2 [Example 57, N-(2-ethoxyethyl)-6-{3-[(2-fluoroethyl)(methyl)amino]propoxy}-7-methoxy-1H,2H,3H-cyclopenta[b]quinolin-9-amine] | 1480 nM
CCN(CCCOc1cc2nc3c(c(NC)c2cc1OC)CCC3)CCOC [Example 58, 6-{3-[ethyl(2-methoxyethyl)amino]propoxy}-7-methoxy-N-methyl-1H,2H,3H-cyclopenta[b]quinolin-9-amine] | 2750 nM
